{
  "source": "patent US20120270237A9",
  "about": "“METHODS FOR THE IDENTIFICATION OF KINASE INTERACTING MOLECULES AND FOR THE PURIFICATION OF KINASE PROTEINS” (Cellzone AG, priority 2009, published 2012)",
  "experiment_in_all_cases": "Kinobeads competition binding, L-363 cell lysate",
  "settings_in_all_cases": "10 μM free compound, L-363 lysate",
  "key": {"[1]": {"target": "BTK (Homo sapiens, UniProt Q06187)", "design": "capturing and identification of kinases from L-363 cell lysate; endogenous in cells; host or cells: L-363 cells, treated with MG132 before harvest", "procedure": "(§1) To one aliquot of cell lysate 10 μM of the free compound (FIG. 3, CZC31326) was added and allowed to bind to proteins in the lysate. Then the affinity matrix with the immobilized compound was added to capture proteins that were not interacting with the previously added free compound. Beads were separated from the lysate and bead bound proteins were eluted in SDS sample buffer and subsequently separated by SDS-Polyacrylamide gel electrophoresis (FIG. 8). Suitable gel bands were cut out and subjected to in-gel proteolytic digestion with trypsin. The second lysate aliquot was processed identically, however no free compound was added (DMSO solvent control). Peptides originating from samples 1 and 2 were labeled with iTRAQ reagents (iTRAQ 114 and iTRAQ 117) and the combined samples were analyzed with a nano-flow liquid chromatography system coupled online to a tandem mass spectrometer (LC-MS/MS) experiment followed by iTRAQ reporter ion quantification in the MS/MS spectra as described in Example 2.\n(§2) For this experiment the human plasma cell leukaemia line L-363 was used (German Collection of Microorganisms and Cell Cultures, DSMZ number ACC49, Braunschweig, Germany). Cells were treated for three hours with 20 μM of the proteasome inhibitor MG132 (Z-Leu-Leu-Leu-al, Sigma C2211) prior to cell harvesting."}, "[2]": {"target": "AAK1 (Homo sapiens, UniProt Q2M2I8)", "sequence (Q2M2I8 whole entry)": "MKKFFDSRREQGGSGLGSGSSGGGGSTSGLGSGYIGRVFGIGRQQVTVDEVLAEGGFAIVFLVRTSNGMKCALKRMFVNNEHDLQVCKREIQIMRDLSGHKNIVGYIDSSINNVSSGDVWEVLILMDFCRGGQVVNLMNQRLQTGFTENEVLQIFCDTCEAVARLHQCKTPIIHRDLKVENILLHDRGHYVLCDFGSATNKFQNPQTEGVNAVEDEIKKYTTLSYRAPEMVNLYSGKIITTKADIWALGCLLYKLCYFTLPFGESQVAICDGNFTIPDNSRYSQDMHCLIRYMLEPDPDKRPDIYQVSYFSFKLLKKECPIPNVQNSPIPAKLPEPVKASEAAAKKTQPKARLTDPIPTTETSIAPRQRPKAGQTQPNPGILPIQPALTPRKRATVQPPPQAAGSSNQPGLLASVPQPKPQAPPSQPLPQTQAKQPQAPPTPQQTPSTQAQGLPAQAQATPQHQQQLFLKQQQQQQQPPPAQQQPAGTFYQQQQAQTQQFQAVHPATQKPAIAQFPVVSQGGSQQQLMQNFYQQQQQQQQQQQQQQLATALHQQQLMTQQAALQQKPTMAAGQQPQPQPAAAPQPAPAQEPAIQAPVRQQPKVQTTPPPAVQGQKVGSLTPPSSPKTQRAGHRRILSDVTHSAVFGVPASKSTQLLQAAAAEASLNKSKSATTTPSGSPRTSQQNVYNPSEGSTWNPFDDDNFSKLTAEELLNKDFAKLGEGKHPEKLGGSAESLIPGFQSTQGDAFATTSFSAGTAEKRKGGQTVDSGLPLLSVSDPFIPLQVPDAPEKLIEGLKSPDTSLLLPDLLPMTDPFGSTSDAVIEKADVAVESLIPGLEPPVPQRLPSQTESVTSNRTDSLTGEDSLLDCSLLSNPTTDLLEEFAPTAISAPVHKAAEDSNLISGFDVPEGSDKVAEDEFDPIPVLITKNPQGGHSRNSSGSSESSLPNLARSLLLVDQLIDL", "design": "capturing and identification of kinases from L-363 cell lysate; endogenous in cells; host or cells: L-363 cells, treated with MG132 before harvest", "procedure": "as §1, §2"}, "[3]": {"target": "SLK (Homo sapiens, UniProt Q9H2G2)", "sequence (Q9H2G2 whole entry)": "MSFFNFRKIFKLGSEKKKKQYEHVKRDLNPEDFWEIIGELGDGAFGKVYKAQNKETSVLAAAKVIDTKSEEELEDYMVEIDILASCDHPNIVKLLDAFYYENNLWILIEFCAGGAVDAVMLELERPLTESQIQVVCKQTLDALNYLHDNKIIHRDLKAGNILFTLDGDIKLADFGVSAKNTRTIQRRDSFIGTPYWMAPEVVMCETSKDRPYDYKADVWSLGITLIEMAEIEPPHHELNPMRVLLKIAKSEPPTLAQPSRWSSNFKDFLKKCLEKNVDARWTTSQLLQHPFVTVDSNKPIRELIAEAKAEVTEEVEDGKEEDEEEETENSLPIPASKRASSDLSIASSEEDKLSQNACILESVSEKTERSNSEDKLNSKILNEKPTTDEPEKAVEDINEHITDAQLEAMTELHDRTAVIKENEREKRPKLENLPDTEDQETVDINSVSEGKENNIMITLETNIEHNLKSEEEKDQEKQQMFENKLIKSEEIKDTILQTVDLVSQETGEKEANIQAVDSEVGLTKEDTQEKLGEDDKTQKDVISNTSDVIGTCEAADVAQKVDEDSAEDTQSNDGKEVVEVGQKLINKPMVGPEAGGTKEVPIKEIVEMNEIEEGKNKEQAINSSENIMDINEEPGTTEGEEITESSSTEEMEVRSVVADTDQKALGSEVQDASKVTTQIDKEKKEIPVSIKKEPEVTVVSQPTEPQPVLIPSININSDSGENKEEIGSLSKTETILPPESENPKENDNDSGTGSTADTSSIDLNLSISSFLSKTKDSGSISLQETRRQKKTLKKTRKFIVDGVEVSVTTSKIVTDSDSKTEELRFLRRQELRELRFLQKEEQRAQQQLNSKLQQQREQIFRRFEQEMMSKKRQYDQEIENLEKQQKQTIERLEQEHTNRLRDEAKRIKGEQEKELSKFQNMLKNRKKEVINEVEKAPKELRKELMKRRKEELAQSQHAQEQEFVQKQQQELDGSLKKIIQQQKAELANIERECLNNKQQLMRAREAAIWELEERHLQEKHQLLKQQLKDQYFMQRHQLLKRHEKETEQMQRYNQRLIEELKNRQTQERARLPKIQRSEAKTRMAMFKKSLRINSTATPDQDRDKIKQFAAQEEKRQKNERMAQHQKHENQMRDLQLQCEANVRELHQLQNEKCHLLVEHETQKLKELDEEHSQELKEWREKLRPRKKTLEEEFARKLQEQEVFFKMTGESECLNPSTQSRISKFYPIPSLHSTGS", "procedure": "as §1, §2"}, "[4]": {"target": "T1, DYRK1A (Homo sapiens, UniProt Q13627)", "T1 construct": "capturing and identification of kinases from L-363 cell lysate; endogenous in cells; host or cells: L-363 (DSMZ ACC49), treated with MG132 before harvest", "procedure": "as §1, §2"}, "[5]": {"target": "T2, NEK1 (Homo sapiens, UniProt Q96PY6)", "T2 construct": "capturing and identification of kinases from L-363 cell lysate; endogenous in cells; host or cells: L-363 (DSMZ ACC49), treated with MG132 before harvest", "procedure": "as §1, §2"}, "[6]": {"target": "T3, ULK1 (Homo sapiens, UniProt O75385)", "T3 construct": "endogenous in cells; host or cells: L-363 (DSMZ ACC49), treated with MG132 before harvest", "T3 sequence (O75385 whole entry)": "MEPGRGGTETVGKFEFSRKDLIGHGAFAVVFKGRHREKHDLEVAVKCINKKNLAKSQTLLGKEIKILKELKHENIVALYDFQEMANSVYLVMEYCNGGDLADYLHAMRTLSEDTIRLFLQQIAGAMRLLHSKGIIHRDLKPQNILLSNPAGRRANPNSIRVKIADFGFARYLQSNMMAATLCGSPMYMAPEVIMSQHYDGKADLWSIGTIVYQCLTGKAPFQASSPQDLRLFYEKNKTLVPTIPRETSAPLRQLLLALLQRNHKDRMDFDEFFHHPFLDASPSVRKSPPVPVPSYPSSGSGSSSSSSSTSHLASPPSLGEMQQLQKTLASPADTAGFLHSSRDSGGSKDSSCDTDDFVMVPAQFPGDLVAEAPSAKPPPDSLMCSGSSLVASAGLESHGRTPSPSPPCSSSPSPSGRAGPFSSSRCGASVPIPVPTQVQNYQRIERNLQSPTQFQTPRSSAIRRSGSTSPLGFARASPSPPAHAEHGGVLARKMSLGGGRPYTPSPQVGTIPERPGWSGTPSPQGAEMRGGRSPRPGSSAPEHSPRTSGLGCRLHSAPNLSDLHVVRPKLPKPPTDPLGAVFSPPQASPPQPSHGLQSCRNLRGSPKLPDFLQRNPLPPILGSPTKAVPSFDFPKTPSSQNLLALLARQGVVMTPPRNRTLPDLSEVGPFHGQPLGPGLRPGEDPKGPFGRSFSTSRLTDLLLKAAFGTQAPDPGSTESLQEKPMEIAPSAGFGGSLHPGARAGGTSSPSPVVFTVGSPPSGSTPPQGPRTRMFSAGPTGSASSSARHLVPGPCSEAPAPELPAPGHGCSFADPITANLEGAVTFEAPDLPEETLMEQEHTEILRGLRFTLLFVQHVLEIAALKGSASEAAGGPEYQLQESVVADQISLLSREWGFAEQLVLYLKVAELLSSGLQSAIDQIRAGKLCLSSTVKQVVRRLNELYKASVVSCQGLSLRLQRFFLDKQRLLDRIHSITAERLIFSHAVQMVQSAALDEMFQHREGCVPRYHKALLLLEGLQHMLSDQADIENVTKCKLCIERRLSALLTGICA", "procedure": "as §1, §2"}, "[7]": {"target": "T4, NEK7 (Homo sapiens, UniProt Q8TDX7)", "T4 construct": "capturing and identification of kinases from L-363 cell lysate; endogenous in cells; host or cells: L-363 (DSMZ ACC49), treated with MG132 before harvest", "T4 sequence (Q8TDX7 whole entry)": "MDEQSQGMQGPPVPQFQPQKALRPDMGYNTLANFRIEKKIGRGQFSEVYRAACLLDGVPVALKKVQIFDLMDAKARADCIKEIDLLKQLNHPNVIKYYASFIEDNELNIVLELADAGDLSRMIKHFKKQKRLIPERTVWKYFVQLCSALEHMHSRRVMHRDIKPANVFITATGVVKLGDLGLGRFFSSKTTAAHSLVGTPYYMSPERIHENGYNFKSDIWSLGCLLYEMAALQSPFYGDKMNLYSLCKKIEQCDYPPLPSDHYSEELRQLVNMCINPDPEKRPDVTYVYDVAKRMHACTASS", "procedure": "as §1, §2"}, "[8]": {"target": "T5, NEK6 (Homo sapiens, UniProt Q9HC98)", "T5 construct": "capturing and identification of kinases from L-363 cell lysate; endogenous in cells; host or cells: L-363 (DSMZ ACC49), treated with MG132 before harvest", "T5 sequence (Q9HC98 whole entry)": "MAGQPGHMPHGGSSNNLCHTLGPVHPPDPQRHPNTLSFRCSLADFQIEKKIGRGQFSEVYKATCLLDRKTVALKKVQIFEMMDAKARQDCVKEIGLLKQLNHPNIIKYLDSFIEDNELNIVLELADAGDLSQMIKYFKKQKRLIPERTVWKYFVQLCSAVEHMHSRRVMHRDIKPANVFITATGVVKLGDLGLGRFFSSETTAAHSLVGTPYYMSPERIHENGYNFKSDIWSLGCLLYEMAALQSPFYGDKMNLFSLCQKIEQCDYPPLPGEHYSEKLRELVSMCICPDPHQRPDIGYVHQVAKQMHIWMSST", "procedure": "as §1, §2"}, "[9]": {"target": "T6, JAK3 (Homo sapiens, UniProt P52333)", "T6 construct": "capturing and identification of kinases from L-363 cell lysate; endogenous in cells; host or cells: L-363 (DSMZ ACC49), treated with MG132 before harvest", "procedure": "as §1, §2"}, "[10]": {"target": "T7, ADCK1 (Homo sapiens, UniProt Q86TW2)", "T7 construct": "capturing and identification of kinases from L-363 cell lysate; endogenous in cells; host or cells: L-363 (treated with MG132 before harvest)", "procedure": "as §1, §2"}, "[11]": {"target": "T8, RSK4 (Homo sapiens, UniProt Q9UK32)", "T8 construct": "endogenous in cells; host or cells: L-363 (DSMZ ACC49), treated with MG132 before harvest", "T8 sequence (Q9UK32 whole entry)": "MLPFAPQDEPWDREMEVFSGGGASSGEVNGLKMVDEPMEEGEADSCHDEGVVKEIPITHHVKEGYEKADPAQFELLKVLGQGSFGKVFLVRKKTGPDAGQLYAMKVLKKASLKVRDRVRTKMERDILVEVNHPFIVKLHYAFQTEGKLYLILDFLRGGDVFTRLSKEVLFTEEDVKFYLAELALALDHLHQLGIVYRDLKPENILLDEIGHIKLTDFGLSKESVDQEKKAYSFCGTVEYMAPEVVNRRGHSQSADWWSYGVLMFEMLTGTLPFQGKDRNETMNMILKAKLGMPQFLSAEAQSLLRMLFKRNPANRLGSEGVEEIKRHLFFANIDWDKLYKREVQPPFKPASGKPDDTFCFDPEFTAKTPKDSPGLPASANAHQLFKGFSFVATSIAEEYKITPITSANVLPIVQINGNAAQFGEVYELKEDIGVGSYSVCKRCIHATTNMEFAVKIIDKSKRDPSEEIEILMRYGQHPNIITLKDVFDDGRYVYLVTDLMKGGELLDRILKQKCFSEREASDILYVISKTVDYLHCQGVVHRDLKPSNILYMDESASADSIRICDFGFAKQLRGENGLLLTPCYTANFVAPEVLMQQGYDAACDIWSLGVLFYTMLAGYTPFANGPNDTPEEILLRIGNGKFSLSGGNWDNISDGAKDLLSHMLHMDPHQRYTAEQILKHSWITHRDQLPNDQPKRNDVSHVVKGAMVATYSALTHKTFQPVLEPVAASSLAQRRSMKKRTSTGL", "procedure": "as §1, §2"}, "[12]": {"target": "T9, INSR (Homo sapiens, UniProt P06213)", "T9 construct": "capturing and identification of kinases from L-363 cell lysate; endogenous in cells; host or cells: L-363 (DSMZ ACC49), treated with MG132 before harvest", "procedure": "as §1, §2"}, "[13]": {"target": "T10, HRI (Homo sapiens, UniProt Q9BQI3)", "T10 construct": "capturing and identification of kinases from L-363 cell lysate; endogenous in cells; host or cells: L-363 (DSMZ ACC49), treated with MG132 before harvest", "procedure": "as §1, §2"}, "[14]": {"target": "T11, ULK3 (Homo sapiens, UniProt Q6PHR2)", "T11 sequence (Q6PHR2 1-472)": "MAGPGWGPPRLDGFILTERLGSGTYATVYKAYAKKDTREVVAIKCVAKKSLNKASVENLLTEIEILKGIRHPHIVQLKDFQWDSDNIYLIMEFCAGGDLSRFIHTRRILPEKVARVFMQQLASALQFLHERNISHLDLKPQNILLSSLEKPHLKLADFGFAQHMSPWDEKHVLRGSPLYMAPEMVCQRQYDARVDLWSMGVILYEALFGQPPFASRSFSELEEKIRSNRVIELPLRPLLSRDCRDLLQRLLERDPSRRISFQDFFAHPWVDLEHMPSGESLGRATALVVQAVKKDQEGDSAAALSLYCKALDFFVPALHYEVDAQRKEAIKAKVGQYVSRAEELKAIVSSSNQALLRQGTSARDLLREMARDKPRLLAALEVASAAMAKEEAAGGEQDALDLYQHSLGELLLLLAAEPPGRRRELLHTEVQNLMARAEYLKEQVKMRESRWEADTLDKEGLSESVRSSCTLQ", "procedure": "as §1, §2"}},
  "data": [
    {"compound": "CS(=O)(=O)Nc1ccccc1Nc1nc(Nc2cccc(OCCN)c2)ncc1Cl", "note": "[CZC31326, N-(2-(2-(3-(2-aminoethoxy)phenylamino)-5-chloropyrimidin-4-ylamino)phenyl)methanesulfonamide]", "values": [
      {"measurement": "Competition %", "setting": "[1]", "result": 95.7, "unit": "%"},
      {"measurement": "inhibition at 10 µM", "setting": "[2]", "result": 97.4, "unit": "%"},
      {"measurement": "inhibition at 10 µM", "setting": "[3]", "result": 95, "unit": "%"},
      {"measurement": "inhibition at 10 µM", "setting": "[4]", "result": 96.5, "unit": "%"},
      {"measurement": "inhibition at 10 µM", "setting": "[5]", "result": 95.7, "unit": "%"},
      {"measurement": "Competition %", "setting": "[6]", "result": 96.5, "unit": "%"},
      {"measurement": "inhibition at 10 µM", "setting": "[7]", "result": 93.9, "unit": "%"},
      {"measurement": "inhibition at 10 µM", "setting": "[8]", "result": 83.7, "unit": "%"},
      {"measurement": "inhibition at 10 µM", "setting": "[9]", "result": 98.1, "unit": "%"},
      {"measurement": "inhibition at 10 µM", "setting": "[10]", "result": 93.8, "unit": "%"},
      {"measurement": "Competition %", "setting": "[11]", "result": 96.7, "unit": "%"},
      {"measurement": "inhibition at 10 µM", "setting": "[12]", "result": 90.1, "unit": "%"},
      {"measurement": "inhibition at 10 µM", "setting": "[13]", "result": 95.8, "unit": "%"},
      {"measurement": "Competition %", "setting": "[14]", "result": 98.5, "unit": "%"}
    ]}
  ]
}
